Tested on: C57BL/6 mice
Assay: animal or person
Assay type: in vivo
Conditions: Mus musculus, sc, 0.5 h, s.c. administration, 30 min, 55° C. water, read-out: ED50 (mg/kg) at 30 min on C57BL/6 mice in Warm-water Tail-flick Test

CCOCC1(CCc2ccccc2)CCN(Cc2ccc(Br)cc2)CC1 [Compound 150, 1-(4-bromobenzyl)-4-(ethoxymethyl)-4-phenethylpiperidine]
ED50: > 10 mg/kg

CCOCC1(CCc2ccccc2)CCN(Cc2ccc(C#N)cc2)CC1 [Compound 151, 4-((4-(ethoxymethyl)-4-phenethylpiperidin-1-yl)methyl)benzonitrile]
ED50: > 10 mg/kg

CCOCC1(CCc2ccccc2)CCN(Cc2ccc(B3OC(C)(C)C(C)(C)O3)cc2)CC1 [Compound 152, 4-(ethoxymethyl)-4-phenethyl-1-(4-(4,4,5,5-tetramethyl-1,3,2-dioxaborolan-2-yl)benzyl)piperidine]
ED50: > 10 mg/kg

CCOCC1(CCc2ccccc2)CCN(Cc2ccc(-c3cn[nH]n3)cc2)CC1 [Compound 153, 1-(4-(2H-1,2,3-triazol-4-yl)benzyl)-4-(ethoxymethyl)-4-phenethylpiperidine]
ED50: > 10 mg/kg

CCOCC1(CCc2ccccc2)CCN(Cc2ccc(-c3nnn[nH]3)cc2)CC1.Cl [Compound 154, 1-(4-(1H-tetrazol-5-yl)benzyl)-4-(ethoxymethyl)-4-phenethylpiperidine HCl]
ED50: > 10 mg/kg

CCOCC1(CCc2ccccc2)CCN(Cc2ccc(-c3n[nH]c(=O)[nH]3)cc2)CC1 [Compound 155, 3-(4-((4-(ethoxymethyl)-4-phenethylpiperidin-1-yl)methyl)phenyl)-1H-1,2,4-triazol-5(4H)-one]
ED50: > 10 mg/kg

CCOCC1(CCc2ccccc2)CCN(Cc2ccc(C(C)O)cc2)CC1.Cl (stereo not shown) [Compound 156, 1-(4-((4-(ethoxymethyl)-4-phenethylpiperidin-1-yl)methyl)phenyl)ethanol HCl]
ED50: > 10 mg/kg

CCOCC1(CCc2ccccc2)CCN(Cc2ccc(-n3ccnn3)cc2)CC1 [Compound 157]
ED50: > 10 mg/kg

CCOCC1(CCc2ccccc2)CCN(Cc2ccc(-n3nccn3)cc2)CC1 [Compound 158]
ED50: > 10 mg/kg

CCOC(C)C1(CCc2ccccc2)CCN(Cc2ccc(NC(C)=O)cc2)CC1.Cl (stereo not shown) [Compound 159, N-(4-((4-(1-ethoxyethyl)-4-phenethylpiperidin-1-yl)methyl)phenyl)acetamide HCl]
ED50: > 10 mg/kg

CC(=O)Nc1ccc(CN2CCC(CCc3ccccc3)(C3CCC(C)O3)CC2)cc1 (stereo not shown) [Compound 160, N-(4-((4-(5-methyltetrahydro-furan-2-yl)-4-phenethylpiperidin-1-yl)methyl)phenyl)acetamide]
ED50: < 10 mg/kg

CCOCC1(CCc2ccccc2)CCN(Cc2ccc(CC(N)=O)cc2)CC1 [Compound 161, 2-(4-((4-(ethoxymethyl)-4-phenethylpiperidin-1-yl)methyl)phenyl)acetamide]
ED50: > 10 mg/kg

CCOCC1(CCc2ccccc2)CCN(Cc2ccc(CC(=O)NC)cc2)CC1 [Compound 162, 2-(4-((4-(ethoxymethyl)-4-phenethylpiperidin-1-yl)methyl)phenyl)-N-methylacetamide]
ED50: > 10 mg/kg

CCOCC1(CCc2ccccc2)CCN(Cc2ccc(CC(C)O)cc2)CC1 (stereo not shown) [Compound 163, 1-(4-((4-(ethoxymethyl)-4-phenethylpiperidin-1-yl)methyl)phenyl)propan-2-ol]
ED50: > 10 mg/kg

CC(=O)Nc1ccc(CN2CCC(CCc3ccccc3)(C3(C)CC=CCO3)CC2)cc1.Cl (stereo not shown) [Compound 164, N-(4-((4-(2-methyl-3,6-dihydro-2H-pyran-2-yl)-4-phenethylpiperidin-1-yl)methyl)phenyl)acetamide HCl]
ED50: > 10 mg/kg

CC(=O)Nc1ccc(CN2CCC(CCc3ccccc3)(C3(C)CCCCO3)CC2)cc1 (stereo not shown) [Compound 165, N-(4-((4-(2-methyltetrahydro-2H-pyran-2-yl)-4-phenethylpiperidin-1-yl)methyl)phenyl)acetamide]
ED50: < 10 mg/kg

CCOCC1(/C=C/c2ccccn2)CCN(Cc2ccc(NC(C)=O)cc2)CC1 [Compound 166, (E)-N-(4-((4-(ethoxymethyl)-4-(2-(pyridin-2-yl)vinyl)piperidin-1-yl)methyl)phenyl)acetamide]
ED50: > 10 mg/kg

CCOCC1(/C=C/c2ccsc2)CCN(Cc2ccc(NC(C)=O)cc2)CC1 [Compound 167, (E)-N-(4-((4-(ethoxymethyl)-4-(2-(thiophen-3-yl)vinyl)piperidin-1-yl)methyl)phenyl)acetamide]
ED50: > 10 mg/kg

CCOCC1(/C=C/c2ccc3ccccc3c2)CCN(Cc2ccc(NC(C)=O)cc2)CC1 [Compound 168, (E)-N-(4-((4-(ethoxymethyl)-4-(2-(naphthalen-2-yl)vinyl)piperidin-1-yl)methyl)phenyl)acetamide]
ED50: > 10 mg/kg

CCOCC1(CCc2ccccc2)CCN(Cc2ccc(CNC(C)=O)cc2)CC1.Cl [Compound 169, N-(4-((4-(ethoxymethyl)-4-phenethylpiperidin-1-yl)methyl)benzyl)acetamide HCl]
ED50: > 10 mg/kg

CCOCC1(CCc2ccccc2OC)CCN(Cc2ccc(NC(C)=O)cc2)CC1 [Compound 170, N-(4-((4-(ethoxymethyl)-4-(2-methoxy-phenethyl)piperidin-1-yl)methyl)phenyl)acetamide]
ED50: > 10 mg/kg

CC(=O)Nc1ccc(CN2CCC(CCc3cccs3)(C3CCO3)CC2)cc1 (stereo not shown) [Compound 171, N-(4-((4-(oxetan-2-yl)-4-(2-(thiophen-2-yl)ethyl)piperidin-1-yl)methyl)phenyl)acetamide]
ED50: < 10 mg/kg

CC(=O)Nc1ccc(CN2CCC(CCc3cccs3)(C3CCCO3)CC2)cc1 (stereo not shown) [Compound 172, N-(4-((4-(tetrahydrofuran-2-yl)-4-(2-(thiophen-2-yl)ethyl)piperidin-1-yl)methyl)phenyl)acetamide]
ED50: < 10 mg/kg

CCOCC1(CCc2ccccc2)CCN(Cc2ccc(NC=O)s2)CC1 [Compound 173, N-(5-((4-(ethoxymethyl)-4-phenethylpiperidin-1-yl)methyl)thiophen-2-yl)formamide]
ED50: > 10 mg/kg

CCOCC1(CCc2ccccc2)CCN(c2ccc(CNC(C)=O)cc2)CC1 [Compound 174, N-(4-(4-(ethoxymethyl)-4-phenethylpiperidin-1-yl)benzyl)acetamide]
ED50: > 10 mg/kg

CC(=O)Nc1ccc(CN2CCC(CCc3ccccc3)(C3C=CC(C)O3)CC2)cc1 (stereo not shown) [Compound 175, N-(4-((4-(5-methyl-2,5-dihydrofuran-2-yl)-4-phenethylpiperidin-1-yl)methyl)phenyl)acetamide]
ED50: < 10 mg/kg

CCOCC1(CCc2ccccc2)CCN(Cc2cccc(NC(C)=O)c2)CC1 [Compound 176, N-(3-((4-(ethoxymethyl)-4-phenethylpiperidin-1-yl)methyl)phenyl)acetamide]
ED50: > 10 mg/kg

CCOCC1(CCc2cccs2)CCN(Cc2ccc(NC(C)=O)cc2)C1 (stereo not shown) [Compound 177, N-(4-((3-(ethoxymethyl)-3-(2-(thiophen-2-yl)ethyl)pyrrolidin-1-yl)methyl)phenyl)acetamide]
ED50: < 10 mg/kg

CCOCC1(CCc2ccsc2)CCN(Cc2ccc(NC(C)=O)cc2)C1 (stereo not shown) [Compound 178, N-(4-((3-(ethoxymethyl)-3-(2-(thiophen-3-yl)ethyl)pyrrolidin-1-yl)methyl)phenyl)acetamide]
ED50: < 10 mg/kg

CC(=O)Nc1ccc(CN2CCC(CCc3ccccc3)(C3C=CCO3)C2)cc1 (stereo not shown) [Compound 179, N-(4-((3-(2,5-dihydrofuran-2-yl)-3-phenethylpyrrolidin-1-yl)methyl)phenyl)acetamide]
ED50: < 10 mg/kg

CC(=O)Nc1ccc(CN2CCC(CCc3ccccc3)(C3CCCO3)C2)cc1 (stereo not shown) [Compound 180, N-(4-((3-phenethyl-3-(tetrahydrofuran-2-yl)pyrrolidin-1-yl)methyl)phenyl)acetamide]
ED50: > 10 mg/kg

Source: patent publication US11584765B2 (priority 2017, dated 2023)
